This note sets out measurements from article PMC10746753 (Pharmaceutical Research, 2023).

This assay has as its system Caki-1 xenografts. In words: Anti-tumor efficacy study EFF-02. Type of assay: in vivo, CD1 nu/nu mice. The conditions noted are these: p.o., 6–7 weeks. How it is done:
For all in vivo studies, human Caki-1 renal tumor cells (ATCC: HTB-46, RRID: CVCL_0234; 5 million in 100 µL PBS w/o Ca/Mg, Matrigel [1:1]) were subcutaneously inoculated into the right flank of female 5–6-week-old CD-1 nude mice provided by Charles River Laboratories (CRL), Sulzfeld, Germany. Tumor growth was observed over time by measuring tumor length (L) and width (W) twice weekly using calipers. Tumor volume was calculated using the formula LxW^2/2. Data were collected in Study Advantage™ (data collection system).
Anti-tumor efficacy study. […] PD analysis was not performed in this study.

`O=C(NCc1cc(F)cc(F)c1)[C@@]1(O)CCN(c2ccc3[nH]ccc3c2)C1=O` [M8891]: the minimal efficacious dose amounted to 25 mg/kg BID.
